Measured values taken from ChEMBL document CHEMBL1133368, “Preparation of 5-(2,6-dideoxy-2-fluoro-alpha-L-talopyranosyloxy)-6-hydroxynap htho[2,3- f]quinoline-7,12-dione (FT-Alz), a new-type, potentially antitumor substance with various biological activities” (Bioorg Med Chem Lett, 2000).

Legend:
K562 = test: Growth inhibitory concentration of compound was measured against human leukemia cell line (K562); format: functional, cell-based
Melanoma cell line = test: Growth inhibitory concentration of compound was measured against human melanoma cell line (HMV-1); format: functional, cell-based
P388 [1] = test: Growth inhibitory concentration of compound was measured against murine leukemia cell line (P388); format: functional, cell-based; settings: Mus musculus
KB = test: Growth inhibitory concentration of compound was measured against human nasopharyngeal carcinoma cell line (KB); format: functional, cell-based
MKN-1 = test: Growth inhibitory concentration of compound was measured against human gastric adenocarcinoma cell line (MKN-1); format: functional, cell-based
P388 [2] = test: Growth inhibitory concentration of compound was measured against DOX resistant P388 cell line (P388 /DOX); format: functional, cell-based; settings: Mus musculus
PC-14 = test: Growth inhibitory concentration of compound was measured against human lung carcinoma cell line (PC-14); format: functional, cell-based
L1210 = test: Growth inhibitory concentration of compound was measured against murine leukemia cell line (L1210); format: functional, cell-based; settings: Mus musculus
T-24 = test: Growth inhibitory concentration of compound was measured against human bladder carcinoma cell line (T24); format: functional, cell-based
DNA topoisomerase II = DNA topoisomerase II (Homo sapiens, UniProt P11388+Q02880); test: The compound was tested for its inhibitory activity against topoisomerase II; format: protein assay

| IC50 (K562) | IC50 (Melanoma cell line) | IC50 (P388 [1]) | IC50 (KB) | IC50 (MKN-1) | IC50 (P388 [2]) | IC50 (L1210) | IC50 (DNA topoisomerase II) | SMILES | IC50 (PC-14) | IC50 (T-24) |
| --- | --- | --- | --- | --- | --- | --- | --- | --- | --- | --- |
| 5.8 µM | 7500 nM | > 8500 nM | > 8500 nM | > 8500 nM | > 8500 nM | > 8500 nM |  | CC1OC(Oc2c3c(c4cccnc4c2OC2OC(C)C(O)C(O)C2F)C(=O)c2ccccc2C3=O)C(F)C(O)C1O (configuration not stated) | > 8500 nM | > 8500 nM |
| 0.71 µM | 590 nM | 770 nM | 270 nM | 730 nM | 820 nM | 320 nM | 5 µM | CC1OC(Oc2c(O)c3c(c4cccnc24)C(=O)c2ccccc2C3=O)C(F)C(O)C1O (configuration not stated) | 710 nM | 360 nM |
| 7.2 µM | 4100 nM | 6900 nM | 3000 nM | 14000 nM | 3300 nM | 7200 nM |  | O=C1c2ccccc2C(=O)c2c1c(O)c(O)c1ncccc21 | > 17000 nM | 14000 nM |

| SMILES | IC50 (K562) | IC50 (Melanoma cell line) | IC50 (P388 [1]) | IC50 (KB) | IC50 (MKN-1) | IC50 (P388 [2]) | IC50 (L1210) | IC50 (DNA topoisomerase II) | IC50 (PC-14) | IC50 (T-24) |
| --- | --- | --- | --- | --- | --- | --- | --- | --- | --- | --- |
| COc1cccc2c1C(=O)c1c(O)c3c(c(O)c1C2=O)C[C@@](O)(C(=O)CO)C[C@@H]3O[C@H]1C[C@H](N)[C@H](O)[C@H](C)O1 [DOXORUBICIN] | 0.12 µM | 280 nM | 20 nM | 220 nM | 640 nM | > 900 nM | 50 nM |  | 1900 nM | 640 nM |
